According to PubChem BioAssay AID192 (DTP/NCI, 2004):
Values joined by “and” are separate entries in the source; they are usually repeats but may differ in a detail not shown here. Equal entries are not always repeated. Inconclusive results and toxic doses are left out. Numbered stars: 1 amine (or outer) side, 2 acyl side, 3 side chain; on linkers, the order of the positions; unused ones are H or OH. Bridge positions count the residues as written; N and C are the ends. Square brackets hold non-standard residues; d marks the D form. Peptide text beside a SMILES is read from it. I, II: the chains in the order shown. Actinocin(1to9) = Cc1c2oc3c(C)ccc(C(=O)[*:2])c3nc-2c(C(=O)[*:1])c(N)c1=O; Hyp = O=C(O)[CH]1C[CH](O)CN1; NMeV = CN[CH](C(=O)O)C(C)C; Sar = CNCC(=O)O

Test system: BDF1 mice, B16 melanoma ip, median survival T/C
Assay: NCI In Vivo Anticancer Drug Screen. Data for tumor model B16 Melanoma (intraperitoneal) in B6D2F1 (BDF1) mice
Conditions: endpoint: median survival time, higher = longer survival
How it was run: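 Tumor-bearing mice received test compound or vehicle. Survival or tumor size was then measured in both groups. The treated-group figure was divided by the control-group figure.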

[1] = dose: 1.56 mg/kg/injection, schedule: Q01DX009 (ip), vehicle: saline
[2] = dose: 3.13 mg/kg/injection, schedule: Q01DX009 (ip), vehicle: saline
[3] = dose: 25.0 mg/kg/injection, schedule: Q01DX009 (ip), vehicle: saline
[4] = dose: 50.0 mg/kg/injection, schedule: Q01DX009 (ip), vehicle: saline
[5] = dose: 100.0 mg/kg/injection, schedule: Q01DX009 (ip), vehicle: saline
[6] = dose: 100.0 mg/kg/injection, schedule: Q01DX009 (ip), vehicle: Klucel (hydroxypropylcellulose) (HPC)
[7] = dose: 200.0 mg/kg/injection, schedule: Q01DX009 (ip), vehicle: Klucel (hydroxypropylcellulose) (HPC)
[8] = dose: 6.25 mg/kg/injection, schedule: Q01DX009 (ip), vehicle: Klucel (hydroxypropylcellulose) (HPC)
[9] = dose: 12.5 mg/kg/injection, schedule: Q01DX009 (ip), vehicle: Klucel (hydroxypropylcellulose) (HPC)
[10] = dose: 25.0 mg/kg/injection, schedule: Q01DX009 (ip), vehicle: Klucel (hydroxypropylcellulose) (HPC)
[11] = dose: 100.0 mg/kg/injection, schedule: Q01DX009 (ip), vehicle: saline with Tween-80
[12] = dose: 200.0 mg/kg/injection, schedule: Q01DX009 (ip), vehicle: saline with Tween-80
[13] = dose: 400.0 mg/kg/injection, schedule: Q01DX009 (ip), vehicle: saline with Tween-80
[14] = dose: 400.0 mg/kg/injection, schedule: Q01DX009 (ip), vehicle: Klucel (hydroxypropylcellulose) (HPC)
[15] = dose: 50.0 mg/kg/injection, schedule: Q01DX009 (ip), vehicle: saline with Tween-80
[16] = dose: 25.0 mg/kg/injection, schedule: Q01DX009 (ip), vehicle: saline with Tween-80

SMILES: CNC1=C(N2CC2C)C(=O)C(NC)=C(N2CC2C)C1=O (stereo not given)
- T/C (dose: 1.25 mg/kg/injection, schedule: Q01DX009 (ip), vehicle: saline): 109 % of control

SMILES: Cc1ccc2c(ccc(/C=C\c3cc(C)c4cccnc4c3O)[n+]2C)c1
- T/C [1]: 95 % of control
- T/C [2]: 95 % of control
- T/C (dose: 6.25 mg/kg/injection, schedule: Q01DX009 (ip), vehicle: saline): 91 % of control

SMILES: COc1cc2c(c(OC)c1OC)-c1ccc(OC)c(=O)cc1[C@@H](N)CC2
- T/C (dose: 0.31 mg/kg/injection, schedule: Q01DX009 (ip), vehicle: saline): 120 % of control
- T/C (dose: 2.5 mg/kg/injection, schedule: Q01DX009 (ip), vehicle: Klucel (hydroxypropylcellulose) (HPC)): 89 % of control
- T/C (dose: 5.0 mg/kg/injection, schedule: Q01DX009 (ip), vehicle: Klucel (hydroxypropylcellulose) (HPC)): 110 % of control

SMILES: Cc1c2oc3c(C)ccc(C(=O)NC4C(=O)NC(C(C)C)C(=O)N5CCCC5C(=O)N(C)CC(=O)N(C)C(C(C)C)C(=O)OC4C)c3nc-2c(C(=O)NC2C(=O)NC(C(C)C)C(=O)N3CC(O)CC3C(=O)N(C)CC(=O)N(C)C(C(C)C)C(=O)OC2C)c(N)c1=O (stereo not given) (I: TV[Hyp][Sar][NMeV] / II: TVP[Sar][NMeV]; ester I:1-I:C, II:1-II:C; linker I:N-II:N via Actinocin(1to9); configuration not given here)
- T/C (dose: 100.0 micrograms/kg/injection, schedule: Q01DX009 (ip), vehicle: saline + alcohol): 152 % of control
- T/C (dose: 150.0 micrograms/kg/injection, schedule: Q01DX009 (ip), vehicle: saline + alcohol): 158 % of control
- T/C (dose: 225.0 micrograms/kg/injection, schedule: Q04DX003 (ip), vehicle: saline + alcohol): 120 % of control
- T/C (dose: 450.0 micrograms/kg/injection, schedule: Q04DX003 (ip), vehicle: saline + alcohol): 121 % of control
- T/C (dose: 600.0 micrograms/kg/injection, schedule: Q04DX003 (ip), vehicle: saline + alcohol): 95 % of control
- T/C (dose: 900.0 micrograms/kg/injection, schedule: Q04DX003 (ip), vehicle: saline + alcohol): 88 % of control

SMILES: CC(C)C[C@H](O)C(=O)O
- T/C [3]: 104 % of control
- T/C [4]: 110 % of control

SMILES: CCC(=O)NC(CC(C)C)C(=O)NC(CC(C)C)C(=O)NC(C=O)CCCN=C(N)N (stereo not given) (tested in a mixture with another compound)
- T/C (dose: 12.5 mg/kg/injection, schedule: Q01DX009 (ip), vehicle: saline): 100 % of control and 105 % of control
- T/C [3]: 94 % of control and 105 % of control
- T/C [4]: 99 % of control and 105 % of control
- T/C [5]: 108 % of control and 120 % of control

SMILES: [O-][n+]1c(CN2CCCCC2)nc2cccc3c2c1-c1ccccc1-3
- T/C (dose: 50.0 mg/kg/injection, schedule: Q01DX009 (ip), vehicle: Klucel (hydroxypropylcellulose) (HPC)): 102 % of control
- T/C [6]: 119 % of control
- T/C [7]: 113 % of control

SMILES: Cc1ccc(S(=O)(=O)c2ccc(Sc3cccc[n+]3[O-])c3nonc23)cc1
- T/C (dose: 80.0 mg/kg/injection, schedule: Q04DX002 (ip), vehicle: saline with Tween-80): 97 % of control
- T/C (dose: 160.0 mg/kg/injection, schedule: Q04DX002 (ip), vehicle: saline with Tween-80): 102 % of control
- T/C (dose: 320.0 mg/kg/injection, schedule: Q04DX002 (ip), vehicle: saline with Tween-80): 100 % of control

SMILES: C=CS(C=C)=NS(=O)(=O)c1ccc(C)cc1
- T/C (dose: 1.56 mg/kg/injection, schedule: Q01DX009 (ip), vehicle: Klucel (hydroxypropylcellulose) (HPC)): 95 % of control and 108 % of control
- T/C (dose: 3.12 mg/kg/injection, schedule: Q01DX009 (ip), vehicle: Klucel (hydroxypropylcellulose) (HPC)): 95 % of control and 101 % of control
- T/C [8]: 97 % of control and 98 % of control
- T/C [9]: 107 % of control and 110 % of control
- T/C [10]: 88 % of control and 95 % of control

SMILES: O=C(O)C1Cc2c([nH]c3ccccc23)C(CCCCO)N1 (stereo not given)
- T/C [8]: 99 % of control
- T/C [9]: 101 % of control
- T/C [10]: 107 % of control

SMILES: CC1=Nc2ccccc2/C1=C\c1c(C)[nH]c2ccccc12
- T/C [3]: 110 % of control
- T/C [4]: 113 % of control
- T/C [5]: 121 % of control
- T/C (dose: 200.0 mg/kg/injection, schedule: Q01DX009 (ip), vehicle: saline): 97 % of control

SMILES: CCO/C=C1\SC(=S)N(c2ccco2)C1=O
- T/C [3]: 111 % of control
- T/C (dose: 25.0 mg/kg/injection, schedule: Q04DX003 (ip), vehicle: saline): 116 % of control
- T/C [4]: 98 % of control
- T/C (dose: 50.0 mg/kg/injection, schedule: Q04DX003 (ip), vehicle: saline): 105 % of control
- T/C [5]: 117 % of control
- T/C (dose: 100.0 mg/kg/injection, schedule: Q04DX003 (ip), vehicle: saline): 116 % of control
- T/C (dose: 200.0 mg/kg/injection, schedule: Q04DX003 (ip), vehicle: saline): 102 % of control

SMILES: Nc1ccc(N(CCCl)CCN(CCCl)c2ccc(N)cc2)cc1
- T/C (dose: 0.36 mg/kg/injection, schedule: Q01DX009 (ip), vehicle: saline): 108 % of control
- T/C (dose: 0.75 mg/kg/injection, schedule: Q01DX009 (ip), vehicle: saline): 113 % of control
- T/C (dose: 1.5 mg/kg/injection, schedule: Q01DX009 (ip), vehicle: saline): 113 % of control
- T/C (dose: 3.0 mg/kg/injection, schedule: Q01DX009 (ip), vehicle: saline): 119 % of control

SMILES: Cc1ccccc1C(=O)NCC(=O)O
- T/C [11]: 107 % of control
- T/C [12]: 99 % of control
- T/C [13]: 95 % of control

SMILES: CN(CCO)/N=N/c1nc[nH]c1C(N)=O
- T/C (dose: 50.0 mg/kg/injection, schedule: Q01DX009 (ip), vehicle: carboxymethylcellulose (CMC)): 105 % of control

SMILES: CCCCCCCCCC(O)CCCCC (stereo not given)
- T/C (dose: 75.0 mg/kg/injection, schedule: Q04DX003 (ip), vehicle: saline with Tween-80): 102 % of control
- T/C (dose: 150.0 mg/kg/injection, schedule: Q04DX003 (ip), vehicle: saline with Tween-80): 94 % of control
- T/C (dose: 300.0 mg/kg/injection, schedule: Q04DX003 (ip), vehicle: saline with Tween-80): 100 % of control

SMILES: C=CCOCC(O)CN(CCC(C)C)CCC(C)C (stereo not given)
- T/C (dose: 12.5 mg/kg/injection, schedule: Q04DX003 (ip), vehicle: Klucel (hydroxypropylcellulose) (HPC)): 91 % of control
- T/C (dose: 25.0 mg/kg/injection, schedule: Q04DX003 (ip), vehicle: Klucel (hydroxypropylcellulose) (HPC)): 91 % of control
- T/C (dose: 50.0 mg/kg/injection, schedule: Q04DX003 (ip), vehicle: Klucel (hydroxypropylcellulose) (HPC)): 95 % of control

SMILES: Cc1c(NC=O)c(=O)n(-c2ccccc2)n1C
- T/C [6]: 100 % of control
- T/C [7]: 100 % of control
- T/C [14]: 96 % of control

SMILES: CC12COC(=O)CC1CCC1C2CCC2(C)C1CCC2(C)O (stereo not given)
- T/C [15]: 94 % of control
- T/C [11]: 94 % of control
- T/C [12]: 88 % of control

SMILES: NC(=O)CC(N)C(=O)O.[Cl-].[Cl-].[Cl-].[Cl-].[Pt+2] (stereo not given)
- T/C [1]: 114 % of control
- T/C [2]: 122 % of control

SMILES: CC1(C)N=C(N)N=C(N)N1c1ccc(OCC(=O)N2CCOCC2)c(Cl)c1
- T/C [3]: 104 % of control
- T/C [4]: 93 % of control
- T/C [5]: 98 % of control

SMILES: O=C(O)CNC(=O)C(Br)Cc1ccccc1 (stereo not given)
- T/C [16]: 91 % of control
- T/C [15]: 88 % of control
- T/C [11]: 91 % of control
- T/C [13]: 89 % of control

SMILES: OCCN1CCN(CCCN2c3ccccc3CCc3ccccc32)CC1
- T/C (dose: 3.9 mg/kg/injection, schedule: Q01DX009 (ip), vehicle: saline): 95 % of control
- T/C (dose: 7.81 mg/kg/injection, schedule: Q01DX009 (ip), vehicle: saline): 93 % of control
- T/C (dose: 15.62 mg/kg/injection, schedule: Q01DX009 (ip), vehicle: saline): 100 % of control
- T/C (dose: 31.25 mg/kg/injection, schedule: Q01DX009 (ip), vehicle: saline): 97 % of control
- T/C (dose: 62.5 mg/kg/injection, schedule: Q01DX009 (ip), vehicle: saline): 95 % of control

SMILES: COc1cccc2c1C(=O)c1c(O)c3c(c(O)c1C2=O)C[C@@](O)(C(=O)CN1CCN(C)CC1)C[C@@H]3OC1CC(N)C(O)C(C)O1 (stereo not given in full)
- T/C (dose: 1.56 mg/kg/injection, schedule: Q01DX009 (ip), vehicle: water): 110 % of control
- T/C (dose: 3.13 mg/kg/injection, schedule: Q01DX009 (ip), vehicle: water): 113 % of control

SMILES: Brc1cc(Br)c(-c2c(Br)cc(Br)cc2Br)c(Br)c1
- T/C [6]: 102 % of control
- T/C [7]: 88 % of control

SMILES: O=C(OCCOCCOCCOC(=O)c1ccccc1)c1ccccc1
- T/C [14]: 121 % of control

SMILES: O=C(NC(CSCc1ccccc1)C(=O)O)OCc1ccccc1 (stereo not given)
- T/C (dose: 12.5 mg/kg/injection, schedule: Q01DX009 (ip), vehicle: saline with Tween-80): 107 % of control
- T/C [16]: 107 % of control
- T/C [15]: 98 % of control and 103 % of control
- T/C [11]: 87 % of control

SMILES: CC1(C)N=C(N)N=C(N)N1c1cc(Cl)ccc1Cl
- T/C [8]: 94 % of control
- T/C [9]: 92 % of control
- T/C [10]: 89 % of control and 94 % of control
